From PubChem BioAssay AID2060336 (Molecular Pharmacology Branch, DTP, NCI, 2025)
Where “and” joins values, the source holds several entries; their conditions need not be identical. Equal values may be shown once.

Tested on: 958767-090-R-J1-PDC spheroid growth
Test: Anticancer human tumor 958767-090-R-J1-PDC patient-derived head and neck squamous carcinoma cell line growth inhibition [IpAb]
Details: spheroids with HUVEC and MSC; for viability, T/C: stronger effect = lower value
Procedure, shortened: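 Combinations with ipatasertib or abemaciclib were tested on tumour spheroids holding HUVEC (25%) and MSC (15%) alongside 60% malignant cells. Top concentration was at or near clinical Cmax (10 microM if undefined), descending in half-log steps.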

[1] = curve of first compound, second compound 0.1 µM
[2] = curve of first compound, second compound 0.316 µM
[3] = curve of first compound, second compound 1 µM
[4] = curve of first compound, second compound 3.16 µM
[5] = curve of first compound, second compound 10 µM
[6] = second compound 0.1 µM, first compound 0.0316 µM
[7] = second compound 0.1 µM, first compound 0.1 µM
[8] = second compound 0.1 µM, first compound 0.316 µM
[9] = second compound 0.1 µM, first compound 1 µM
[10] = second compound 0.316 µM, first compound 0.0316 µM
[11] = second compound 0.316 µM, first compound 0.1 µM
[12] = second compound 0.316 µM, first compound 0.316 µM
[13] = second compound 0.316 µM, first compound 1 µM
[14] = second compound 1 µM, first compound 0.0316 µM
[15] = second compound 1 µM, first compound 0.1 µM
[16] = second compound 1 µM, first compound 0.316 µM
[17] = second compound 1 µM, first compound 1 µM
[18] = second compound 3.16 µM, first compound 0.0316 µM
[19] = second compound 3.16 µM, first compound 0.1 µM
[20] = second compound 3.16 µM, first compound 0.316 µM
[21] = second compound 3.16 µM, first compound 1 µM
[22] = second compound 10 µM, first compound 0.0316 µM
[23] = second compound 10 µM, first compound 0.1 µM
[24] = second compound 10 µM, first compound 0.316 µM
[25] = second compound 10 µM, first compound 1 µM
[26] = second compound 0.1 µM, first compound 3.16 µM
[27] = second compound 0.1 µM, first compound 10 µM
[28] = second compound 0.316 µM, first compound 3.16 µM
[29] = second compound 0.316 µM, first compound 10 µM
[30] = second compound 1 µM, first compound 3.16 µM
[31] = second compound 1 µM, first compound 10 µM
[32] = curve of first compound, second compound 0.01 µM
[33] = curve of first compound, second compound 0.0316 µM
[34] = second compound 0.01 µM, first compound 0.0316 µM
[35] = second compound 0.01 µM, first compound 0.1 µM
[36] = second compound 0.01 µM, first compound 0.316 µM
[37] = second compound 0.01 µM, first compound 1 µM
[38] = second compound 0.01 µM, first compound 3.16 µM
[39] = second compound 0.01 µM, first compound 10 µM
[40] = second compound 0.0316 µM, first compound 0.0316 µM
[41] = second compound 0.0316 µM, first compound 0.1 µM
[42] = second compound 0.0316 µM, first compound 0.316 µM
[43] = second compound 0.0316 µM, first compound 1 µM
[44] = second compound 0.0316 µM, first compound 3.16 µM
[45] = second compound 0.0316 µM, first compound 10 µM
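Further: spheroids exposed to agents for 7 days.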
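Wherever viability, T/C is given: 100% = DMSO vehicle control wells.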

COc1c(OCCCN2CCOCC2)ccc2c3n(c(=NC(=O)c4cnc(N)nc4)nc12)CCN3 + CC(C)NCC(C(=O)N1CCN(c2ncnc3c2C(C)CC3O)CC1)c1ccc(Cl)cc1
IC50 [1]: 0.0141 µM | IC50 [2]: 0.00443 µM | IC50 [3]: < 0.00316 µM | IC50 [4]: < 0.00316 µM | IC50 [5]: < 0.00316 µM | viability, T/C (second compound 0.1 µM, first compound 0.00316 µM): 78% | viability, T/C (second compound 0.1 µM, first compound 0.01 µM): 55.2% | viability, T/C [6]: 36.6% | viability, T/C [7]: 22.6% | viability, T/C [8]: 9.18% | viability, T/C [9]: 4.85% | viability, T/C (second compound 0.316 µM, first compound 0.00316 µM): 52.9% | viability, T/C (second compound 0.316 µM, first compound 0.01 µM): 43.2% | viability, T/C [10]: 25.7% | viability, T/C [11]: 15.6% | viability, T/C [12]: 6.21% | viability, T/C [13]: 3.9% | viability, T/C (second compound 1 µM, first compound 0.00316 µM): 42.1% | viability, T/C (second compound 1 µM, first compound 0.01 µM): 32.6% | viability, T/C [14]: 26.6% | viability, T/C [15]: 15.5% | viability, T/C [16]: 5.63% | viability, T/C [17]: 3.82% | viability, T/C (second compound 3.16 µM, first compound 0.00316 µM): 41.7% | viability, T/C (second compound 3.16 µM, first compound 0.01 µM): 24.8% | viability, T/C [18]: 20.9% | viability, T/C [19]: 11.5% | viability, T/C [20]: 6.46% | viability, T/C [21]: 3.61% | viability, T/C (second compound 10 µM, first compound 0.00316 µM): 28.3% | viability, T/C (second compound 10 µM, first compound 0.01 µM): 19.8% | viability, T/C [22]: 14.1% | viability, T/C [23]: 9.67% | viability, T/C [24]: 4.23% | viability, T/C [25]: 3.22%

Cn1ncc(Cl)c1-c1cc(C(=O)NC(CN)Cc2cccc(F)c2)sc1Cl (centres undefined) + CC(C)NCC(C(=O)N1CCN(c2ncnc3c2C(C)CC3O)CC1)c1ccc(Cl)cc1
IC50 [1]: 1.21 µM | IC50 [2]: 0.952 µM | IC50 [3]: 1.02 µM | IC50 [4]: 0.113 µM | IC50 [5]: < 0.0316 µM | viability, T/C [6]: 70.3% | viability, T/C [7]: 70.3% | viability, T/C [8]: 54.5% | viability, T/C [9]: 59.3% | viability, T/C [26]: 32.8% | viability, T/C [27]: 0.14% | viability, T/C [10]: 57.5% | viability, T/C [11]: 62.6% | viability, T/C [12]: 52.2% | viability, T/C [13]: 47.5% | viability, T/C [28]: 37.9% | viability, T/C [29]: 0.46% | viability, T/C [14]: 54.6% | viability, T/C [15]: 50.8% | viability, T/C [16]: 55.4% | viability, T/C [17]: 50% | viability, T/C [30]: 31.6% | viability, T/C [31]: 0.13% | viability, T/C [18]: 53.1% | viability, T/C [19]: 47.6% | viability, T/C [20]: 48.4% | viability, T/C [21]: 45.7% | viability, T/C (second compound 3.16 µM, first compound 3.16 µM): 32.3% | viability, T/C (second compound 3.16 µM, first compound 10 µM): 0.64% | viability, T/C [22]: 42.5% | viability, T/C [23]: 36.3% | viability, T/C [24]: 39.8% | viability, T/C [25]: 42.5% | viability, T/C (second compound 10 µM, first compound 3.16 µM): 22.2% | viability, T/C (second compound 10 µM, first compound 10 µM): 0.81%

Cn1nccc1Nc1nccc(-c2ccn(C(CO)c3ccc(Cl)c(F)c3)c(=O)c2)n1 (centres undefined) + CCN1CCN(Cc2ccc(Nc3ncc(F)c(-c4cc(F)c5nc(C)n(C(C)C)c5c4)n3)nc2)CC1
IC50 [32]: 1.58 µM | IC50 [33]: 1.61 µM | IC50 [1]: 0.441 µM | IC50 [2]: 0.254 µM | IC50 [3]: 1.02 µM | viability, T/C [34]: 72.3% | viability, T/C [35]: 62.5% | viability, T/C [36]: 61.3% | viability, T/C [37]: 55.5% | viability, T/C [38]: 43.8% | viability, T/C [39]: 24.9% | viability, T/C [40]: 69.3% | viability, T/C [41]: 60.3% | viability, T/C [42]: 53% | viability, T/C [43]: 55.2% | viability, T/C [44]: 46.8% | viability, T/C [45]: 17.1% | viability, T/C [6]: 63.3% | viability, T/C [7]: 50.6% | viability, T/C [8]: 51.5% | viability, T/C [9]: 46.4% | viability, T/C [26]: 36.8% | viability, T/C [27]: 18.6% | viability, T/C [10]: 61.4% | viability, T/C [11]: 50.5% | viability, T/C [12]: 46.8% | viability, T/C [13]: 47.7% | viability, T/C [28]: 31.6% | viability, T/C [29]: 23.2% | viability, T/C [14]: 71.1% | viability, T/C [15]: 60.2% | viability, T/C [16]: 60.2% | viability, T/C [17]: 50.7% | viability, T/C [30]: 38.8% | viability, T/C [31]: 21.7%

C=CCn1c(=O)c2cnc(Nc3ccc(N4CCN(C)CC4)cc3)nc2n1-c1cccc(C(C)(C)O)n1
viability, T/C (compound 0.0316 µM): 86.2% and 89.5% | viability, T/C (compound 0.1 µM): 72.7% and 72.8% | viability, T/C (compound 0.316 µM): 33.4% and 47.7% | viability, T/C (compound 1 µM): 27.7% and 37.4% | viability, T/C (compound 3.16 µM): 25% and 28.7% | viability, T/C (compound 10 µM): 21.1% and 20.1% | IC50 (curve of compound): 0.195 µM and 0.344 µM

Cn1nccc1Nc1nccc(-c2ccn(C(CO)c3ccc(Cl)c(F)c3)c(=O)c2)n1 (centres undefined)
viability, T/C (compound 0.0316 µM): 92.1% and 96.5% | viability, T/C (compound 0.1 µM): 72.6% and 82.8% | viability, T/C (compound 0.316 µM): 71.3% and 72.6% | viability, T/C (compound 1 µM): 55.1% and 69.1% | viability, T/C (compound 3.16 µM): 54.4% and 50% | viability, T/C (compound 10 µM): 21.6% and 26.4% | IC50 (curve of compound): 2 µM and 2.91 µM

Cc1nc(NC(=O)N2CCCC2C(N)=O)sc1-c1ccnc(C(C)(C)C(F)(F)F)c1 (centres undefined) + CCN1CCN(Cc2ccc(Nc3ncc(F)c(-c4cc(F)c5nc(C)n(C(C)C)c5c4)n3)nc2)CC1
IC50 [32]: 0.171 µM | IC50 [33]: 0.059 µM | IC50 [1]: < 0.0316 µM | IC50 [2]: < 0.0316 µM | IC50 [3]: 0.141 µM | viability, T/C [34]: 65.3% | viability, T/C [35]: 56.4% | viability, T/C [36]: 42.7% | viability, T/C [37]: 31.7% | viability, T/C [38]: 19.3% | viability, T/C [39]: 11.2% | viability, T/C [40]: 57.6% | viability, T/C [41]: 40.5% | viability, T/C [42]: 36.4% | viability, T/C [43]: 27.2% | viability, T/C [44]: 15.9% | viability, T/C [45]: 9.45% | viability, T/C [6]: 49.9% | viability, T/C [7]: 43.3% | viability, T/C [8]: 34.9% | viability, T/C [9]: 24.9% | viability, T/C [26]: 15.8% | viability, T/C [27]: 9.36% | viability, T/C [10]: 39.5% | viability, T/C [11]: 39.3% | viability, T/C [12]: 27.6% | viability, T/C [13]: 20.7% | viability, T/C [28]: 17.1% | viability, T/C [29]: 10.8% | viability, T/C [14]: 62.6% | viability, T/C [15]: 56.2% | viability, T/C [16]: 38.3% | viability, T/C [17]: 31.5% | viability, T/C [30]: 19.9% | viability, T/C [31]: 13.2%
